Common to all, as to experiment: inhibition of tumour cell growth, NCI panel, 48 h
The test system of test [1] is SF-295.
Test [2] deals with SK-MEL-2.
Test [3] deals with A549.
The test system of test [4] is RPMI-8226.
The subject of test [5] is SW-620.
Test [6] concerns MOLT-4.
The test system of test [7] is NCI-H460.
The subject of test [8] is COLO 205.
Test [9] relates to EKVX.
Test [10] concerns SNB-75.
The test system of test [11] is SNB-19.
In test [12] the test system is HCC 2998.
The subject of test [13] is UO-31.
Test [14] relates to U-251.
The subject of test [15] is SK-MEL-28.
Test [16] relates to LXFL 529.
For test [17], the system named is MDA-N.
The test system of test [18] is Malme-3M.
In test [19] the test system is LOX IMVI.
Test [20] deals with T47D.

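Step 1: Grow cells in 96-well plates. Step 2: Expose to compound for 48 hours at 5 concentrations. Step 3: Interpolate endpoints linearly; if unreached, use highest concentration. The concentration for 50% growth inhibition is given as GI50.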 The source made the active and inactive calls. No stated cut-off is given here; in the data, active = GI50 up to about 1.1 µM and inactive = higher.

For the compound `O=C1c2c(O)cccc2C(C(=O)CCCCC(=O)C2c3cccc(O)c3C(=O)c3c(O)cccc32)c2cccc(O)c21`, the GI50 in test [1] was 0.469 µM (active); in test [2], 0.54 µM (active); in test [3], 0.483 µM (active); in test [4], 0.457 µM (active); in test [5], 0.925 µM (active); in test [6], 0.979 µM (active). The GI50 in [7] was 0.403 µM (active); in test [8], 0.759 µM (active); in test [9], 0.596 µM (active); in test [10], 0.948 µM (active); in test [11] it was 0.288 µM (active); in test [12], 0.791 µM (active). Also, the GI50 is 0.504 µM (active) in test [13]; 0.433 µM (active) in test [14]; 0.877 µM (active) in test [15]; 0.441 µM (active) in test [16]; 0.879 µM (active) in test [17]; 1.38 µM (inactive) in test [18]. Further, the GI50 in test [19] was 0.668 µM (active); in [20], 0.442 µM (active).

For the compound `O=C1NC(=O)c2c1n(Cc1ccccc1)c(=O)n2Cc1ccccc1`, the GI50 in test [1] is > 100 µM (inactive); in [2], > 100 µM (inactive); in test [3], > 100 µM (inactive); in test [4], 53.2 µM (inactive); in [5], > 100 µM (inactive); in test [6], > 100 µM (inactive). Further, the GI50 in [7] was 86.7 µM (inactive); in [8] it was > 100 µM (inactive); in test [9], > 100 µM (inactive); in test [10] it was > 100 µM (inactive); in test [11], > 100 µM (inactive); in [12] it was > 100 µM (inactive). The GI50 in test [13], in [14], in test [15], in test [16], in [18] and in test [19] was > 100 µM (inactive) each time.

Regarding `CC[C@@]1(O)C(=O)OCc2c1cc1n(c2=O)Cc2c-1nc1ccccc1c2Cl`, the GI50 in test [1] is < 0.01 µM (active); in [2] it was 0.396 µM (active); in [3], < 0.01 µM (active); in test [4], < 0.0151 µM (active); in test [5], 0.0348 µM (active); in test [6] it was < 0.01 µM (active). For the same compound, the GI50 is < 0.01 µM (active) in test [7]; 0.658 µM (active) in [8]; 0.659 µM (active) in test [9]; 0.0123 µM (active) in [10]; < 0.0107 µM (active) in test [11]; 0.521 µM (active) in test [12]. Moreover, the GI50 is < 0.01 µM (active) in [13]; < 0.01 µM (active) in test [14]; 0.204 µM (active) in test [15]; 0.935 µM (active) in [16]; 0.069 µM (active) in test [17]; 0.239 µM (active) in test [18]. In addition, the GI50 in test [19] and in test [20] was < 0.01 µM (active) in each case.

With `CC1=C(C(=O)Nc2ccccc2C)C(c2ccccc2C)C(C(=O)Nc2ccccc2C)=C(C)N1`, the GI50 in [1] is 20.1 µM (inactive); in [2], 18.7 µM (inactive); in test [3] it was 30.6 µM (inactive); in test [4], 24 µM (inactive); in test [5], 18.1 µM (inactive); in test [6], > 10 µM (inactive). In addition, the GI50 in test [7] is 22.6 µM (inactive); in [8], 24.3 µM (inactive); in test [9], 20.7 µM (inactive); in [10], 22.4 µM (inactive); in test [11] it was 22.6 µM (inactive); in [12], 18.5 µM (inactive). Moreover, the GI50 in test [13] is 14.5 µM (inactive); in [14], 19.5 µM (inactive); in test [15], 19.9 µM (inactive); in test [16], > 10 µM (inactive); in test [18], 18.2 µM (inactive); in [19], 15 µM (inactive).

Take `COC(=O)c1c(O)ccc(O)c1C(C(C)=O)C(C)=O`: the GI50 in test [1], in [2], in test [3], in test [4], in [5] and in [6] was > 100 µM (inactive) in each case. Further, the GI50 in test [7], in test [8], in test [9], in [10], in [11] and in test [12] was > 100 µM (inactive) throughout. The GI50 in [13], in test [14], in test [15], in test [16], in [18] and in test [19] was > 100 µM (inactive) each time.
